From patent US20050054696A1, “Indole compounds and medicinal use thereof” (priority 2001, published 2005)

Target: T1, recombinant human liver glycogen phosphorylase (HLGPa) (Homo sapiens, UniProt P06737)
T1 construct: made in house; host or cells: Sf9 insect cells (unpurified cell lysate used as enzyme solution)
T1 sequence (P06737 1-847): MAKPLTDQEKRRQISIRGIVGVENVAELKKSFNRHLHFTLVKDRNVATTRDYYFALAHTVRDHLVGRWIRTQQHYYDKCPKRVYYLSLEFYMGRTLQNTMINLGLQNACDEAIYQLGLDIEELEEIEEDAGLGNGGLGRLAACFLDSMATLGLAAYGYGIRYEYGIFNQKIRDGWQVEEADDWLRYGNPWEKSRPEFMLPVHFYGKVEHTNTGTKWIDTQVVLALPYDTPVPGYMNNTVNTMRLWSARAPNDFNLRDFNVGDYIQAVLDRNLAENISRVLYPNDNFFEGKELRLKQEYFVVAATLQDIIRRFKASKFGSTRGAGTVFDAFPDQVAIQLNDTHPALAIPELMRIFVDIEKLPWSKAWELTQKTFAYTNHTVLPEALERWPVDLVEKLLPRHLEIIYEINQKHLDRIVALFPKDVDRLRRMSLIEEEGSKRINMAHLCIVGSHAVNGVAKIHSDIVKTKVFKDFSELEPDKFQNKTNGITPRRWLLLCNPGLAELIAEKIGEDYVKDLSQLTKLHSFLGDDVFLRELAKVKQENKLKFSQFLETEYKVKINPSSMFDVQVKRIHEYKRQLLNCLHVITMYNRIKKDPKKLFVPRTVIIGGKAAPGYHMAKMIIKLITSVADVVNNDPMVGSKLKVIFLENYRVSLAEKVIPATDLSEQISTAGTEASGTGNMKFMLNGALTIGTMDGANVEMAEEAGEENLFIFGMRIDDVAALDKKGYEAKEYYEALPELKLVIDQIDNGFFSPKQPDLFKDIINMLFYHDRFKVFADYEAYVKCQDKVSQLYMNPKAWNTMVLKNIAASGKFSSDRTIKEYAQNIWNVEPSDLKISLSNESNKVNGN
Test: Measurement of liver glycogen phosphorylase activity (enzyme inhibitory activity against HLGPa)
Type: biochemical
Details: Sf9 cell lysate expressing recombinant enzyme; reverse reaction (glycogen synthesis from G1-P), phosphate by malachite green, 60 min room temperature
Summary of the method: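 Activity was run in the reverse, glycogen-synthesis direction, using Sf9 lysate expressing recombinant human liver glycogen phosphorylase (enzyme solution 80 μg/mL protein, pH 7.0). Substrate solution was Tris pH 7.2 with 1.25 mM glucose-1-phosphate, 2.5 mg/ml glycogen and 7.5 mM glucose, reacted 60 min at room temperature. Released phosphate was measured by malachite green A650, with % inhibition taken against DMSO control and no-enzyme blank.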

Compound | IC50 [µM]
Cc1ccccc1N1CCC(=O)N(NC(=O)c2cc3cc(Cl)ccc3[nH]2)C1=O [Example 3-15, 5-chloro-1H-indole-2-carboxylic acid (2,4-dioxo-1-(o-tolyl)perhydropyrimidin-3-yl)amide] | 0.15
O=C(NN1C(=O)CN(c2ccccc2)C1=O)c1cc2cc(Cl)ccc2[nH]1 [Example 4-2, N-(2,4-dioxo-1-phenylimidazolidin-3-yl)-5-chloro-1H-indole-2-carboxamide] | 0.023
O=C(NN1C(=O)CN(c2ccccc2)C1=S)c1cc2cc(Cl)ccc2[nH]1 [Example 4-3, N-(4-oxo-1-phenyl-2-thioxoimidazolidin-3-yl)-5-chloro-1H-indole-2-carboxamide] | > 0.1
O=C(NN1CN(c2ccccc2)CC1=O)c1cc2cc(Cl)ccc2[nH]1 [Example 4-4, N-(1-oxo-4-phenylimidazolidin-2-yl)-5-chloro-1H-indole-2-carboxamide] | > 0.1
O=C(NN1CCN(c2ccccc2)C1=O)c1cc2cc(Cl)ccc2[nH]1 [Example 4-5, N-(2-oxo-1-phenylimidazolidin-3-yl)-5-chloro-1H-indole-2-carboxamide] | > 0.1
O=C(NN1C(=O)[C@@H]2CCCN2C1=O)c1cc2cc(Cl)ccc2[nH]1 [Example 4-7, 5-chloro-1H-indole-2-carboxylic acid ((4S)-1,3-dioxo-perhydropyrrolo[1,2-c]imidazol-2-yl)amide] | > 0.1
O=C(NN1C(=O)[C@H]2CCCN2C1=O)c1cc2cc(Cl)ccc2[nH]1 [Example 4-8, 5-chloro-1H-indole-2-carboxylic acid ((4R)-1,3-dioxo-perhydropyrrolo[1,2-c]imidazol-2-yl)amide] | > 0.1
O=C(NN1C(=O)N[C@@H](Cc2ccccc2)C1=O)c1cc2cc(Cl)ccc2[nH]1 [Example 4-9, 5-chloro-1H-indole-2-carboxylic acid ((4S)-4-benzyl-2,5-dioxoimidazolidin-1-yl)amide] | > 0.1
O=C(NN1C(=O)N[C@H](Cc2ccccc2)C1=O)c1cc2cc(Cl)ccc2[nH]1 [Example 4-10, 5-chloro-1H-indole-2-carboxylic acid ((4R)-4-benzyl-2,5-dioxoimidazolidin-1-yl)amide] | > 0.1
O=C(NN1C(=O)CNC1=O)c1cc2cc(Cl)ccc2[nH]1 [Example 4-11, 5-chloro-1H-indole-2-carboxylic acid (2,4-dioxoimidazolidin-3-yl)amide] | > 0.1
CN1C(=O)N(NC(=O)c2cc3cc(Cl)ccc3[nH]2)C(=O)[C@@H]1c1ccccc1 [Example 4-12, 5-chloro-1H-indole-2-carboxylic acid (1-methyl-2,5-dioxo-4-phenylimidazolidin-1-yl)amide] | > 0.1
O=C(NN1C(=O)CN(c2ccc(F)cc2)C1=O)c1cc2cc(Cl)ccc2[nH]1 [Example 4-13, 5-chloro-1H-indole-2-carboxylic acid (2,4-dioxo-1-(4-fluorophenyl)imidazolidin-3-yl)amide] | > 0.1
O=C(NN1C(=O)NC(c2ccccc2F)C1=O)c1cc2cc(Cl)ccc2[nH]1 (stereo not drawn) [Example 4-14, 5-chloro-1H-indole-2-carboxylic acid (2,5-dioxo-4-(2-fluorophenyl)imidazolidin-1-yl)amide] | 0.11
O=C(NN1C(=O)N[C@@H](c2ccc(O)cc2)C1=O)c1cc2cc(Cl)ccc2[nH]1 [Example 4-18, 5-chloro-1H-indole-2-carboxylic acid ((4S)-2,5-dioxo-4-(4-hydroxyphenyl)imidazolidin-1-yl)amide] | 0.075
COc1ccc([C@H]2NC(=O)N(NC(=O)c3cc4cc(Cl)ccc4[nH]3)C2=O)cc1 [Example 4-20, 5-chloro-1H-indole-2-carboxylic acid ((4R)-2,5-dioxo-4-(4-methoxyphenyl)imidazolidin-1-yl)amide] | 0.17
O=C(NNC(=O)c1cc2cc(Cl)ccc2[nH]1)Nc1ccccc1F [Example 5-5, 5-chloro-1H-indole-2-carboxylic acid 2-((2-fluorophenyl)aminocarbonyl)hydrazide] | 0.079
O=C(NNC(=O)c1cc2cc(Cl)ccc2[nH]1)Nc1cccc(F)c1 [Example 5-6, 5-chloro-1H-indole-2-carboxylic acid 2-((3-fluorophenyl)aminocarbonyl)hydrazide] | 0.049

Compound | IC50 [µM]
O=C(NNC(=O)c1cc2cc(Cl)ccc2[nH]1)Nc1ccc(F)cc1 [Example 5-7, 5-chloro-1H-indole-2-carboxylic acid 2-((4-fluorophenyl)aminocarbonyl)hydrazide] | 0.088
CN(NC(=O)c1cc2cc(Cl)ccc2[nH]1)C(=O)Nc1ccccc1 [Example 5-8, 5-chloro-1H-indole-2-carboxylic acid 2-(anilinocarbonyl)-2-methylhydrazide] | > 0.1
O=C(NNC(=O)c1cc2cc(Cl)ccc2[nH]1)Nc1ccccc1Cl [Example 5-9, 5-chloro-1H-indole-2-carboxylic acid 2-((2-chloroanilino)carbonyl)hydrazide] | > 0.1
O=C(NNC(=O)c1cc2cc(Cl)ccc2[nH]1)Nc1cccc(Cl)c1 [Example 5-10, 5-chloro-1H-indole-2-carboxylic acid 2-((3-chloroanilino)carbonyl)hydrazide] | > 0.1
O=C(NNC(=O)c1cc2cc(Cl)ccc2[nH]1)Nc1ccc(Cl)cc1 [Example 5-11, 5-chloro-1H-indole-2-carboxylic acid 2-((4-chloroanilino)carbonyl)hydrazide] | > 0.1
O=C(NNC(=O)C1(c2ccccc2)CC1)c1cc2cc(Cl)ccc2[nH]1 [Example 5-12, 5-chloro-1H-indole-2-carboxylic acid 2-((1-phenylcyclopropane)carbonyl)hydrazide] | 0.29
O=C(NNC(=O)C1(c2ccccc2)CCCC1)c1cc2cc(Cl)ccc2[nH]1 [Example 5-13, 5-chloro-1H-indole-2-carboxylic acid 2-((1-phenylcyclopentane)carbonyl)hydrazide] | 0.41
O=C(NNC(=O)C1(c2ccccc2)CCCCC1)c1cc2cc(Cl)ccc2[nH]1 [Example 5-14, 5-chloro-1H-indole-2-carboxylic acid 2-((1-phenylcyclohexane)carbonyl)hydrazide] | 0.3
CC(C(=O)NNC(=O)c1cc2cc(Cl)ccc2[nH]1)c1ccccc1 (stereo not drawn) [Example 5-15, 5-chloro-1H-indole-2-carboxylic acid 2-(2-phenylpropanoyl)hydrazide] | 0.063
N[C@H](C(=O)NNC(=O)c1cc2cc(Cl)ccc2[nH]1)c1ccccc1 [Example 5-18, 5-chloro-1H-indole-2-carboxylic acid 2-((2S)-2-amino-2-phenylacetyl)hydrazide] | > 0.1
CS(=O)(=O)O.N=C(Cc1ccccc1)NNC(=O)c1cc2cc(Cl)ccc2[nH]1 [Example 6-21, 5-chloro-1H-indole-2-carboxylic acid 2-((1-imino-2-phenylethyl)hydrazide methanesulfonate] | 0.084
N=C(NNC(=O)c1cc2cc(Cl)ccc2[nH]1)c1ccc(F)c(F)c1 [Example 6-23, 5-chloro-1H-indole-2-carboxylic acid 2-((3,4-difluorophenyl)-imino-methyl)hydrazide methanesulfonate] | 0.067
COc1ccccc1C(=N)NNC(=O)c1cc2cc(Cl)ccc2[nH]1 [Example 6-24, 5-chloro-1H-indole-2-carboxylic acid 2-(imino-(2-methoxyphenyl)-methyl)hydrazide methanesulfonate] | 0.16
N=C(NNC(=O)c1cc2cc(Cl)ccc2[nH]1)c1c(F)cccc1F [Example 6-25, 5-chloro-1H-indole-2-carboxylic acid 2-((2,6-difluorophenyl)-imino-methyl)hydrazide methanesulfonate] | 0.33
Cc1ccc(C(=N)NNC(=O)c2cc3cc(Cl)ccc3[nH]2)n1C [Example 6-27, 5-chloro-1H-indole-2-carboxylic acid 2-((1,2-dimethyl-1H-pyrrol-5-yl)-imino-methyl)hydrazide methanesulfonate] | 0.17
Cc1ccc2[nH]c(C(=O)NNC(=O)c3ccccc3N)cc2c1 [Example 6-28, 2-aminobenzoic acid 2-(5-methyl-1H-indole-2-carbonyl)hydrazide p-toluenesulfonate] | 0.25
